Where only a bound is given, the exact number is not on record here.

The subject of experiment [1] is Rats. The experiment in a line: Heart rate in rats adapted to a thermoneutral environment; D500 dose and selectivity index (test b). As to conditions: selectivity index = ratio of D500 to ED50 in test (a).
The test system of experiment [2] is Rats. The experiment in a line: Metabolic rate by closed-circuit oxygen consumption in fasted rats (test c). It counts as in vivo. As to conditions: at 1mgkg^-1 p.o.; determined for at least one hour after dosing.
In another experiment the test system is BAT mitochondria. The experiment in a line: GDP binding in BAT mitochondria of cold-adapted rats as a measure of thermogenic activation (test a). Format: in vivo. As to conditions: Rattus norvegicus, 1 h; oral; dose producing 50% of the effect of isoprenaline (1 mgkg-1) on GDP binding; rats sacrificed one hour after dosing.

For the compound `CC(C)NCC(O)c1ccc(O)c(O)c1` (stereo not shown) [isoprenaline, reference compound], the SI with Rats [1] (route not stated) is reported as 0.06.

Turning to `COCC(=O)Cc1ccc(OCCNCC(O)c2ccccc2)cc1` (stereo not shown) [Example 1, 1-[4-(2-(2-Hydroxy-2-phenylethylamino)ethoxy)phenyl]-3-methoxypropan-2-one], the SI in the experiment on Rats [1] (oral) is listed as more than 50. In the experiment on Rats [2], the metabolic rate is 4.99 ml O2 min^-1 (Kg^0.75)^-1. Moreover, the median effective dose (ED50) in the experiment with BAT mitochondria came to 0.98 mg/kg.
